We go through 9 compounds from patent US20110028686A1, “Protein binding miniature proteins” (Yale University, priority 2000, published 2011).

Test [1] has as its target catalytic subunit of PKA (Homo sapiens, UniProt P17612). In words: Fluorescence polarization, affinity for PKA catalytic subunit. The test is classed as binding. (Polarisation of emitted light reports the rotation of a fluorescent probe.)
The target of test [2] is T1, CBP KIX wild type (Mus musculus, UniProt P45481).
T1 construct: made in house; host or cells: E. coli BL21(DE3) pArg
As to the kind of experiment: Equilibrium fluorescence polarization, wild type CBP KIX. Format: binding. The settings on record: 25° C.

The target of test [3] is Bcl-2 (Homo sapiens, UniProt P10415). As to the kind of experiment: Bcl-2 binding by fluorescence emission of fluorescein-labeled peptide. Conditions: read-out: Kd for binding to Bcl-2, 4° C., PBS.
Test [4] has as its target protein kinase Cα (PKC-α) (Homo sapiens, UniProt P17252). As to the kind of experiment: Phosphotransferase assay, PKC-α. The test is classed as biochemical. Conditions: 1-K252a up to 100 nM; 1 up to 5 μM.
In test [5] the test system is cGMP-dependent protein kinase (PKG). As to the kind of experiment: Phosphotransferase assay, PKG. The test is classed as biochemical. Conditions: 1 up to 5 μM.
The target in test [6] is Akt kinase (PKB) (Homo sapiens, UniProt P31749). As to the kind of experiment: Phosphotransferase assay, PKB. The test is classed as biochemical. Conditions: 1-K252a up to 100 nM; 1 up to 5 μM.
Test [7] has as its system Ca++/calmodulin kinase II (CamKII). In words: Phosphotransferase assay, CamKII. Format: biochemical. Conditions: 1-K252a up to 100 nM; 1 up to 5 μM.

Square brackets hold non-standard residues; d marks the D form. Ends that are not written are not given here. Peptide text beside a SMILES is read from it. * marks the point of attachment. Fluorescein(5-NHCOCH2) = O=C(C*)Nc1ccc2c(c1)C(=O)OC21c2ccc(O)cc2Oc2cc(O)ccc21; pS = N[C@@H](COP(=O)(O)O)C(=O)O; Sar = CNCC(=O)O

Sequence of Bcl-2 (P10415 1-205): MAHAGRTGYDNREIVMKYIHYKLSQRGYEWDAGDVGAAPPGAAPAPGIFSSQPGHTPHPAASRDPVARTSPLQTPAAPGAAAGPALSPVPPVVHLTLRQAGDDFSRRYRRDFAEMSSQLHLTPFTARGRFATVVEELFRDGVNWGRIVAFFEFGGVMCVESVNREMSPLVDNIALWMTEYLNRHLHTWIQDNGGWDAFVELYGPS
T1 sequence (P45481 586-665 limits assumed): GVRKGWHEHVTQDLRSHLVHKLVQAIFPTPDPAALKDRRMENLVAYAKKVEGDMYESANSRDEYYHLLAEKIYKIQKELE
Sequence of Akt kinase (PKB) (P31749 whole entry, species assumed): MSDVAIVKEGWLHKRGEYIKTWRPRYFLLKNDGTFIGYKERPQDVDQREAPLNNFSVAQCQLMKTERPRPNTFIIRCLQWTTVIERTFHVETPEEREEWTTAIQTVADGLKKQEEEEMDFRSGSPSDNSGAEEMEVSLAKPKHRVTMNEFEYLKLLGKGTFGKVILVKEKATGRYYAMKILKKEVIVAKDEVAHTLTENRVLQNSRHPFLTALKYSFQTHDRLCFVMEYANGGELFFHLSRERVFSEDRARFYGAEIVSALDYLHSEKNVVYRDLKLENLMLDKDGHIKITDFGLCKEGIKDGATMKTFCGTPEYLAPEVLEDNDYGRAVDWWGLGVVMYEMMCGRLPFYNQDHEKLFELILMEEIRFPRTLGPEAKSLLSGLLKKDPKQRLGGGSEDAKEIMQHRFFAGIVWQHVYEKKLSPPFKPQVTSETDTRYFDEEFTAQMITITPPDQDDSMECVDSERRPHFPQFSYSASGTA

A word on the Kd: it is the free concentration of one partner at which half of the binding sites on the other are occupied at equilibrium, for simple one-to-one binding. On to `CC[C@H](C)[C@H](NC(=O)[C@H](C)NC(=O)[C@H](CC(N)=O)NC(=O)[C@H](CCCNC(=N)N)NC(=O)[C@H](CCCNC(=N)N)NC(=O)CNC(=O)[C@@H](NC(=O)[C@@H](NC(=O)CNC(=O)[C@H](CC(C)C)NC(=O)[C@H](Cc1ccc(O)cc1)NC(=O)[C@@H](NC(=O)[C@H](Cc1ccccc1)NC(=O)[C@H](CC(C)C)NC(=O)[C@H](C)NC(=O)[C@H](Cc1ccc(O)cc1)NC(=O)[C@@H](NC(=O)[C@H](Cc1ccccc1)NC(=O)[C@H](CCCNC(=N)N)NC(=O)[C@@H](NC(=O)[C@H](CC(C)C)NC(=O)[C@H](CC(=O)O)NC(=O)[C@H](CCC(=O)O)NC(=O)[C@@H](NC(=O)[C@@H]1CCCN1C(=O)[C@H](C)NC(=O)[C@H](CC(=O)O)NC(=O)[C@H](CC(=O)O)NC(=O)CNC(=O)[C@@H]1CCCN1C(=O)[C@H](Cc1ccc(O)cc1)NC(=O)[C@@H](NC(=O)[C@@H]1CCCN1C(=O)[C@H](CCC(N)=O)NC(=O)[C@H](CO)NC(=O)[C@@H]1CCCN1C(=O)CN)[C@@H](C)O)C(C)C)[C@@H](C)CC)[C@@H](C)O)[C@@H](C)CC)C(C)C)C(C)C)C(=O)N[C@@H](Cc1c[nH]cn1)C(=O)N[C@@H](CC(=O)O)C(=O)N[C@@H](CSCC(=O)Nc1ccc2c(c1)C(=O)OC21c2ccc(O)cc2Oc2cc(O)ccc21)C(N)=O` [2^Flu] (H-GPSQPTYPGDDAPVEDLIRFTYALFIYLGVVGRRNAIHDC(Fluorescein(5-NHCOCH2))-NH2; N-terminus and C-terminus assumed), for which the Kd in test [1] (presence of 100 μM ATP) amounted to 570 ± 123 nM.
With `CC[C@H](C)[C@H](NC(=O)[C@H](Cc1ccc(O)cc1)NC(=O)[C@H](Cc1ccccc1)NC(=O)[C@H](Cc1ccccc1)NC(=O)[C@H](COP(=O)(O)O)NC(=O)[C@H](CC(C)C)NC(=O)[C@H](CCCNC(=N)N)NC(=O)[C@H](CCCNC(=N)N)NC(=O)[C@@H](NC(=O)[C@@H]1CCCN1C(=O)[C@H](C)NC(=O)[C@H](CC(=O)O)NC(=O)[C@H](CC(=O)O)NC(=O)CNC(=O)[C@H](C)NC(=O)[C@H](Cc1ccc(O)cc1)NC(=O)[C@@H](NC(=O)[C@@H]1CCCN1C(=O)[C@H](CCC(N)=O)NC(=O)[C@H](CO)NC(=O)[C@@H]1CCCN1C(=O)CN)[C@@H](C)O)C(C)C)C(=O)N[C@@H](CC(C)C)C(=O)N[C@@H](CC(C)C)C(=O)N[C@@H](CC(=O)O)C(=O)N[C@@H](CC(C)C)C(=O)N[C@@H](Cc1ccc(O)cc1)C(=O)N[C@@H](CC(C)C)C(=O)N[C@@H](CC(=O)O)C(=O)N[C@@H](C)C(=O)N1CCC[C@H]1C(=O)NCC(=O)N[C@H](C(=O)N[C@@H](CSCC(=O)Nc1ccc2c(c1)C(=O)OC21c2ccc(O)cc2Oc2cc(O)ccc21)C(N)=O)C(C)C` [P8A] (H-GPSQPTYAGDDAPVRRL[pS]FFYILLDLYLDAPGVC(Fluorescein(5-NHCOCH2))-NH2), in test [2], the Kd is 1070 ± 80 nM.
`CC[C@H](C)[C@H](NC(=O)[C@H](Cc1ccc(O)cc1)NC(=O)[C@H](Cc1ccccc1)NC(=O)[C@H](Cc1ccccc1)NC(=O)[C@H](COP(=O)(O)O)NC(=O)[C@H](CC(C)C)NC(=O)[C@H](CCCNC(=N)N)NC(=O)[C@H](CCCNC(=N)N)NC(=O)[C@@H](NC(=O)[C@@H]1CCCN1C(=O)[C@H](C)NC(=O)[C@H](CC(=O)O)NC(=O)[C@H](CC(=O)O)NC(=O)CNC(=O)CN(C)C(=O)[C@H](Cc1ccc(O)cc1)NC(=O)[C@@H](NC(=O)[C@@H]1CCCN1C(=O)[C@H](CCC(N)=O)NC(=O)[C@H](CO)NC(=O)[C@@H]1CCCN1C(=O)CN)[C@@H](C)O)C(C)C)C(=O)N[C@@H](CC(C)C)C(=O)N[C@@H](CC(C)C)C(=O)N[C@@H](CC(=O)O)C(=O)N[C@@H](CC(C)C)C(=O)N[C@@H](Cc1ccc(O)cc1)C(=O)N[C@@H](CC(C)C)C(=O)N[C@@H](CC(=O)O)C(=O)N[C@@H](C)C(=O)N1CCC[C@H]1C(=O)NCC(=O)N[C@H](C(=O)N[C@@H](CSCC(=O)Nc1ccc2c(c1)C(=O)OC21c2ccc(O)cc2Oc2cc(O)ccc21)C(N)=O)C(C)C` [P8Z] (H-GPSQPTY[Sar]GDDAPVRRL[pS]FFYILLDLYLDAPGVC(Fluorescein(5-NHCOCH2))-NH2) displayed a Kd in test [2] of 780 ± 50 nM.
On to `CC[C@H](C)[C@H](NC(=O)[C@H](Cc1ccc(O)cc1)NC(=O)[C@H](Cc1ccccc1)NC(=O)[C@H](Cc1ccccc1)NC(=O)[C@H](COP(=O)(O)O)NC(=O)[C@H](CC(C)C)NC(=O)[C@H](CCCNC(=N)N)NC(=O)[C@H](CCCNC(=N)N)NC(=O)[C@@H](NC(=O)[C@@H]1CCCN1C(=O)[C@H](C)NC(=O)[C@H](CC(=O)O)NC(=O)[C@H](CC(=O)O)NC(=O)CNC(=O)[C@@H]1CCCN1C(=O)[C@H](Cc1ccc(O)cc1)NC(=O)[C@@H](NC(=O)[C@@H]1CCCN1C(=O)[C@H](CCC(N)=O)NC(=O)[C@H](CO)NC(=O)[C@@H]1CCCN1C(=O)CN)[C@@H](C)O)C(C)C)C(=O)N[C@@H](CC(C)C)C(=O)N[C@@H](CC(C)C)C(=O)N[C@@H](CC(=O)O)C(=O)N[C@@H](CC(C)C)C(=O)N[C@@H](C)C(=O)N[C@@H](CC(C)C)C(=O)N[C@@H](CC(=O)O)C(=O)N[C@@H](C)C(=O)N1CCC[C@H]1C(=O)NCC(=O)N[C@H](C(=O)N[C@@H](CSCC(=O)Nc1ccc2c(c1)C(=O)OC21c2ccc(O)cc2Oc2cc(O)ccc21)C(N)=O)C(C)C` [Y27A] (H-GPSQPTYPGDDAPVRRL[pS]FFYILLDLALDAPGVC(Fluorescein(5-NHCOCH2))-NH2), for which, in test [2], the affinity, expressed as Kd, was 3090 ± 180 nM.
With `CC[C@H](C)[C@H](NC(=O)[C@H](CCC(=O)O)NC(=O)[C@H](CC(=O)O)NC(=O)CNC(=O)[C@H](Cc1ccccc1)NC(=O)[C@H](Cc1ccc(O)cc1)NC(=O)[C@H](CCCNC(=N)N)NC(=O)[C@H](CC(C)C)NC(=O)[C@H](CC(C)C)NC(=O)[C@H](CCCNC(=N)N)NC(=O)CNC(=O)[C@@H](NC(=O)[C@H](Cc1ccccc1)NC(=O)[C@H](CCCNC(=N)N)NC(=O)[C@@H](NC(=O)[C@H](CC(C)C)NC(=O)[C@H](CC(=O)O)NC(=O)[C@H](CCC(=O)O)NC(=O)[C@@H](NC(=O)[C@@H]1CCCN1C(=O)[C@H](C)NC(=O)[C@H](CC(=O)O)NC(=O)[C@H](CC(=O)O)NC(=O)CNC(=O)[C@@H]1CCCN1C(=O)[C@H](Cc1ccc(O)cc1)NC(=O)[C@@H](NC(=O)[C@@H]1CCCN1C(=O)[C@H](CCC(N)=O)NC(=O)[C@H](CO)NC(=O)[C@@H]1CCCN1C(=O)CN)[C@@H](C)O)C(C)C)[C@@H](C)CC)C(C)C)C(=O)N[C@@H](CC(N)=O)C(=O)N[C@@H](CCCNC(=N)N)C(=O)N[C@@H](CCCNC(=N)N)C(N)=O` [p4100] (H-GPSQPTYPGDDAPVEDLIRFVGRLLRYFGDEINRR-NH2), in test [3], the Kd was determined as 401 ± 40 nM.
The same measure, in the same setting: the value for `CC[C@H](C)[C@H](NC(=O)[C@H](CC(=O)O)NC(=O)[C@H](CC(=O)O)NC(=O)CNC(=O)[C@H](Cc1ccccc1)NC(=O)[C@H](Cc1ccc(O)cc1)NC(=O)[C@H](C)NC(=O)[C@H](CC(C)C)NC(=O)[C@H](CC(C)C)NC(=O)[C@H](CCCNC(=N)N)NC(=O)CNC(=O)[C@@H](NC(=O)[C@H](Cc1ccccc1)NC(=O)[C@H](CCCNC(=N)N)NC(=O)[C@@H](NC(=O)[C@H](CC(C)C)NC(=O)[C@H](CC(=O)O)NC(=O)[C@H](CCC(=O)O)NC(=O)[C@@H](NC(=O)[C@@H]1CCCN1C(=O)[C@H](C)NC(=O)[C@H](CC(=O)O)NC(=O)[C@H](CC(=O)O)NC(=O)CNC(=O)[C@@H]1CCCN1C(=O)[C@H](Cc1ccc(O)cc1)NC(=O)[C@@H](NC(=O)[C@@H]1CCCN1C(=O)[C@H](CCC(N)=O)NC(=O)[C@H](CO)NC(=O)[C@@H]1CCCN1C(=O)CN)[C@@H](C)O)C(C)C)[C@@H](C)CC)C(C)C)C(=O)N[C@@H](CC(N)=O)C(=O)N[C@@H](CCCNC(=N)N)C(=O)N[C@@H](CCCNC(=N)N)C(=O)N[C@@H](Cc1ccc(O)cc1)C(=O)N[C@@H](CSCC(=O)Nc1ccc2c(c1)C(=O)OC21c2ccc(O)cc2Oc2cc(O)ccc21)C(N)=O` [p4101] (H-GPSQPTYPGDDAPVEDLIRFVGRLLAYFGDDINRRYC(Fluorescein(5-NHCOCH2))-NH2) was 811 ± 20 nM.
In the case of `CC[C@H](C)[C@H](NC(=O)[C@H](Cc1ccc(O)cc1)NC(=O)[C@H](CCCNC(=N)N)NC(=O)[C@H](CC(C)C)NC(=O)[C@H](CCCNC(=N)N)NC(=O)[C@H](CO)NC(=O)[C@@H](NC(=O)[C@H](Cc1ccccc1)NC(=O)[C@H](CCCNC(=N)N)NC(=O)[C@@H](NC(=O)[C@H](CC(C)C)NC(=O)[C@H](CC(=O)O)NC(=O)[C@H](CCC(=O)O)NC(=O)[C@@H](NC(=O)[C@@H]1CCCN1C(=O)[C@H](C)NC(=O)[C@H](CC(=O)O)NC(=O)[C@H](CC(=O)O)NC(=O)CNC(=O)[C@@H]1CCCN1C(=O)[C@H](Cc1ccc(O)cc1)NC(=O)[C@@H](NC(=O)[C@@H]1CCCN1C(=O)[C@H](CCC(N)=O)NC(=O)[C@H](CO)NC(=O)[C@@H]1CCCN1C(=O)CN)[C@@H](C)O)C(C)C)[C@@H](C)CC)C(C)C)C(=O)N[C@@H](C)C(=O)N[C@@H](CC(=O)O)C(=O)N[C@@H](CC(C)C)C(=O)N[C@H](C(=O)N[C@@H](CC(N)=O)C(=O)N[C@@H](CCCNC(=N)N)C(=O)N[C@@H](CCCNC(=N)N)C(=O)N[C@@H](Cc1ccc(O)cc1)C(=O)N[C@@H](CSCC(=O)Nc1ccc2c(c1)C(=O)OC21c2ccc(O)cc2Oc2cc(O)ccc21)C(N)=O)[C@@H](C)CC` [p4102] (H-GPSQPTYPGDDAPVEDLIRFVSRLRYIADLINRRYC(Fluorescein(5-NHCOCH2))-NH2), the Kd in test [3] came to 3700 ± 1400 nM.
On to “GPSQPTYPGDDAPVEDLIRFYNDLTYYLFVVSGRTGRRNAIHDC(Fluorescein(5-NHCOCH2))-NH2 (C-terminus assumed) [1^Flu]”, for which the “fold lower stability of PKA complex than PKA·PKI5-24^Flu” value in test [1] (100 μM ATP) is 3 fold. For the same compound, the Kd came to 230 ± 34 nM in test [1] (absence of ATP) and 99 ± 39 nM in test [1] (presence of 100 μM ATP).
Take “GPSQPTYPGDDAPVEDLIRFYNDLTYYLFVVSGRTGRRNAIHDC-NH2 (C-terminus assumed) [compound 1]”: in test [4], the “inhibition of PKC-α phosphotransferase activity” value was “inhibiting no other kinase tested”. The “inhibition of PKG phosphotransferase activity” value in test [5] is reported as “inhibiting no other kinase tested”. Further, the “inhibition of PKB phosphotransferase activity” value in test [6] is listed as “inhibiting no other kinase tested”. Also, in test [7], the “inhibition of CamKII phosphotransferase activity” value is listed as “inhibiting no other kinase tested”.
